Assay results as given in patent publication US8324406B2, “Antitumoral dihydropyran-2-one compounds” (priority 2006, dated 2012).
Where two headings read alike, the source gives them in different places.

Tests used:
[1] = test system: A549; assay: cells; type: cell-based; conditions: Homo sapiens; for IC (TGI): read-out: TGI
Source text: (§1) The aim of this assay is to evaluate the in vitro cytostatic (ability to delay or arrest tumor cell growth) or cytotoxic (ability to kill tumor cells) activity of the samples being tested.
(§2) Evaluation of Cytotoxic Activity Using the SBR Colorimetric Assay
(§3) A colorimetric type of assay, using sulforhodamine B (SRB) reaction has been adapted for a quantitative measurement of cell growth and viability (following the technique described by Skehan P et al. J. Natl. Cancer Inst. 1990, 82, 1107-1112).
(§4) This form of assay employs SBS-standard 96-well cell culture microplates (Faircloth et al. Methods in cell science, 1988, 11(4), 201-205; Mosmann et al, Journal of. Immunological. Methods, 1983, 65(1-2), 55-63). All the cell lines used in this study, derived from different types of human cancer, were obtained from the American Type Culture Collection (ATCC).
(§5) Cells were maintained in Dulbecco's Modified Eagle Medium (DMEM) supplemented with 10% Fetal Bovine Serum (FBS), 2 mM L-glutamine, 100 U/mL penicillin and 100 U/mL streptomycin at 37° C., 5% CO2 and 98% humidity. For the experiments, cells were harvested from subconfluent cultures using trypsinization and resuspended in fresh medium before counting and plating.
(§6) Cells were seeded in 96 well microtiter plates at 5×10^3 cells per well in aliquots of 150 μL, and allowed to attach to the plate surface for 18 hours in drug free medium. One control (untreated) plate of each cell line was fixed (as described below) and used for time zero reference value. Afterwards, test samples were added to the cultures in ten serial dilutions, in aliquots of 50 μL, ranging from 10 to 0.00262 μg/mL. After 48 hours exposure, the antitumor effect was estimated by the SRB method: Briefly, cells were washed twice with PBS, fixed for 15 min in 1% glutaraldehyde solution, rinsed twice in PBS, and stained in 0.4% SRB solution for 30 min at room temperature. Cells were then rinsed several times with 1% acetic acid solution and air-dried. SRB was then extracted in 10 mM trizma base solution and the absorbance measured in an automated spectrophotometric plate reader at 490 nm. Cell survival was expressed as percentage of control cell growth. The final effect of the sample being tested was estimated by applying the NCI algorithm (Boyd M R and Paull K D. Drug Dev. Res. 1995, 34, 91-104).
(§7) Using the mean±SD of triplicate cultures, a dose-response curve was automatically generated using nonlinear regression analysis. Three reference parameters were calculated (NCI algorithm) by automatic interpolation: GI50=concentration that produces 50% growth inhibition; TGI=total growth inhibition (cytostatic effect) and LC50=concentration that produces 50% net cell killing (cytotoxic effect).

[2] = test system: HT29; assay: cells; type: cell-based; conditions: Homo sapiens; for IC (TGI): read-out: TGI
Source text: as §1, §2, §3, §4, §5, §6, §7

[3] = test system: MDA-MB-231; assay: cells; type: cell-based; conditions: Homo sapiens; for IC (TGI): read-out: TGI
Source text: as §1, §2, §3, §4, §5, §6, §7

[4] = test system: HeLa cells; assay: Anti-mitotic assay (anti-MPM2 immunoassay); type: cell-based; conditions: Homo sapiens, 18 hours incubation, read-out: IC50 (50% mitotic arrest)
Protocol: Anti-Mitotic Assay Protocol
The mitotic ratio of the cell cultures (percentage of cells arrested in mitosis) was estimated using a specific 96-well microplate immunoassay that quantitatively detects a specific mitotic marker. HeLa cells (h-cervix carcinoma, ATCC# CCL-2) were incubated for 18 hours in the presence or absence of the samples being tested. Afterwards, cells were washed with PBS and lysed on ice in 75 μL of freshly prepared lysis buffer (1 mM EGTA (pH 7.5), 0.5 mM PMSF and 1 mM NaVO3) for 30 min. An aliquot of the cell extract (60 μL) was transferred to a high-binding surface ELISA plate and dried in a speed-vac for 2 h at room temperature. Plates were then blocked in 100 μL. PBS-1% BSA for 30 min at 30° C. and sequentially incubated with anti-MPM2 primary mouse monoclonal antibody (Upstate Biotechnology, cat #05-368) for 18 h at 4° C. and appropriate peroxidase-conjugated secondary antibody for 1 h at 30° C. After intensive washing in 0.02% Tween-20, peroxidase reaction were performed using 30 μL of TMB (3,3′,5,5′-tetramethyl-benzidine) for 30 min at 30° C. Reaction was stopped by adding 30 μL of a 4% H2SO4 solution. Assay was quantified by measuring the O.D. at 450 nm in a microplate spectrophotometer. Results were expressed as IC50, sample concentration that produces 50% mitotic arrest in treated cell cultures, as compared to control, untreated cultures.

[5] = test system: breast cancer carcinoma; conditions: cited from earlier work
[6] = MDA-MB-231, 48 h, read-out: LC50
[7] = A549, 48 hours exposure, SRB, 50% net cell killing (cytotoxic effect), read-out: LC50 (the source's name)
[8] = A549, 48 hours exposure, SRB, concentration that produces 50% growth inhibition, read-out: GI50
[9] = A549, 48 hours exposure, SRB, total growth inhibition (cytostatic effect)
[10] = HT-29, HT29, 48 hours exposure, SRB, 50% net cell killing (cytotoxic effect), read-out: LC50 (the source's name)
[11] = HT-29, HT29, 48 hours exposure, SRB, concentration that produces 50% growth inhibition, read-out: GI50
[12] = HT-29, HT29, 48 hours exposure, SRB, total growth inhibition (cytostatic effect)
[13] = MDA-MB-231, 48 hours exposure, SRB, 50% net cell killing (cytotoxic effect), read-out: LC50 (the source's name)
[14] = MDA-MB-231, 48 hours exposure, SRB, concentration that produces 50% growth inhibition, read-out: GI50
[15] = MDA-MB-231, 48 hours exposure, SRB, total growth inhibition (cytostatic effect)

SMILES | GI50 ([1]; A549, 48 h) [nM] | CC50 ([1]; A549, 48 h, read-out: LC50) [nM] | IC (TGI) ([1]; A549, 48 h) [nM] | GI50 ([2]; HT-29, 48 h) [nM] | CC50 ([2]; HT-29, 48 h, read-out: LC50) [nM] | IC (TGI) ([2]; HT-29, 48 h) [nM] | GI50 ([3]; MDA-MB-231, 48 h) [nM] | CC50 [3, 6] [nM] | IC (TGI) ([3]; MDA-MB-231, 48 h) [nM] | IC50 [4] [nM] | IC50 [5] [nM] | CC50 [1, 7] [nM] | GI50 [1, 8] [nM] | IC (TGI) [1, 9] [nM] | CC50 [2, 10] [nM] | GI50 [2, 11] [nM] | IC (TGI) [2, 12] [nM] | CC50 [3, 13] [nM] | GI50 [3, 14] [nM] | IC (TGI) [3, 15] [nM]
COC1=CC[C@@H]([C@@H](C)/C=C(C)/C=C\C=C/C(=O)N[C@H](C(=O)N/C=C\C[C@H](C/C=C(\C)Cl)OC(N)=O)C(C)(C)C)OC1=O [Compound 1] | 0.379 | > 165 | 1.09 | 0.462 | 0.99 | 0.61 | 0.445 | 2.8 | 0.99 | 26.4 |  |  |  |  |  |  |  |  |  | 
C=C/C=C\[C@H](C)[C@H](OC(N)=O)[C@@H](C)[C@H](O)[C@@H](C)C/C(C)=C\[C@H](C)[C@@H](O)[C@@H](C)/C=C\[C@@H](O)CC1OC(=O)[C@H](C)[C@@H](O)[C@H]1C (single isomer, unassigned; (+)) [(+)-discodermolide] |  |  |  |  |  |  |  |  |  |  | 2.4 |  |  |  |  |  |  |  |  | 
CC(=O)O[C@H]1C(=O)[C@@]2(C)[C@H]([C@H](OC(=O)c3ccccc3)[C@]3(O)C[C@H](OC(=O)[C@H](O)[C@@H](NC(=O)c4ccccc4)c4ccccc4)C(C)=C1C3(C)C)[C@]1(OC(C)=O)CO[C@@H]1C[C@@H]2O [paclitaxel] |  |  |  |  |  |  |  |  |  |  | 2.1 |  |  |  |  |  |  |  |  | 
COC1=CC[C@@H]([C@@H](C)/C=C(C)/C=C\C=C/C(=O)N[C@H](C(=O)N/C=C\C[C@H](O)C/C=C(\C)Cl)C(C)(C)C)OC1=O [(21S)-30a] |  |  |  |  |  |  |  |  |  |  |  | > 1630 | 3.73 | 195 | > 1630 | 2.66 | 3.02 | 284 | 2.49 | 21.3
COC1=CC[C@@H]([C@@H](C)/C=C(C)/C=C\C=C/C(=O)N[C@H](C(=O)N/C=C\C[C@@H](O)C/C=C(\C)Cl)C(C)(C)C)OC1=O [Compound 30a] |  |  |  |  |  |  |  |  |  |  |  | > 1780 | 2.31 | 137 | 10.1 | 1.35 | 2.13 | 85.2 | 1.95 | 9.41
COC1=CC[C@@H]([C@@H](C)/C=C(C)/C=C/C=C/C(=O)N[C@H](C(=O)N/C=C\C[C@H](C/C=C(\C)Cl)O[Si](C)(C)C(C)(C)C)C(C)(C)C)OC1=O [Compound 37] |  |  |  |  |  |  |  |  |  |  |  | 13900 | 3540 | 6640 | 10000 | 1920 | 2950 | > 14800 | 3100 | 5610
C/C=C\C[C@@H](C/C=C\NC(=O)[C@@H](NC(=O)\C=C/C=C\C(C)=C\[C@H](C)[C@@H]1CC=C(OC)C(=O)O1)C(C)(C)C)OC(N)=O [Compound 4] |  | > 1640 |  |  | 1.12 |  |  | 8.23 |  |  |  |  | 0.595 | 2.45 |  | < 0.431 | 0.928 |  | 0.613 | 1.49
COC1=CCC(C(C)/C=C(C)/C=C/C=C\C(=O)NC(C(=O)N/C=C\CC(C/C=C(\C)Cl)OC(N)=O)C(C)C)OC1=O (stereo not shown) [Compound 6] |  |  |  |  |  |  |  |  |  |  |  | > 1640 | 0.76 | > 1640 | 4.9 | 0.591 | 1.01 | 15.5 | 0.49 | 3.21
COC1=CC[C@@H]([C@@H](C)/C=C(C)/C=C/C=C/C(=O)N[C@H](C(=O)N/C=C\C[C@H](C/C=C(\C)Cl)OC(N)=O)C(C)(C)C)OC1=O [Compound 3] | 1.02 | > 165 | 4.29 | 0.445 | > 165 | 0.759 | 0.924 | 9.57 | 2.47 |  |  |  |  |  |  |  |  |  |  | 
COC1=CC[C@@H]([C@@H](C)/C=C(C)/C=C\C=C/C(=O)N[C@@H](Cc2ccccc2)C(=O)N/C=C\C[C@@H](O)C/C=C(\C)Cl)OC1=O [Compound 30d] |  |  |  |  |  |  |  |  |  |  |  | > 16.7 | 0.318 | 1.06 | > 16.7 | 0.132 | 0.251 | > 16.7 | 0.31 | 0.703
COC1=CC[C@@H]([C@@H](C)/C=C(C)/C=C\C=C\C(=O)N[C@H](C(=O)N/C=C\C[C@H](C/C=C(\C)Cl)OC(N)=O)C(C)(C)C)OC1=O [Compound 8] | 3.63 | > 1650 | 13 | 2.14 | 6.27 | 3.13 | 3.46 | 41.2 | 10.1 |  |  |  |  |  |  |  |  |  |  | 
COC1=CCC(C(C)/C=C(C)/C=C/C=C\C(=O)NC(C(=O)N/C=C\CC(C/C=C(\C)Cl)OC(N)=O)C(C)(C)C)OC1=O (stereo not shown) [Compound 2] | 8.63 | ≥ 16500 | 23.7 | 8.31 | 17.2 | 10.9 | 9.85 | 72 | 21.5 | 26.4 |  |  |  |  |  |  |  |  |  | 
COC1=CC[C@@H]([C@@H](C)/C=C(C)/C=C\C=C/C(=O)N[C@H](C(=O)N/C=C\C[C@@H](O)C/C=C(\C)Cl)C(C)C)OC1=O [Compound 30c] |  |  |  |  |  |  |  |  |  |  |  | > 182 | 0.71 | 3.1 | > 182 | 0.474 | 0.838 | 52.8 | 0.983 | 5.83
COC1=CC[C@@H]([C@@H](C)/C=C(C)/C=C\C=C/C(=O)N[C@H](C(=O)N/C=C\C[C@@H](C/C=C(\C)Cl)OC(N)=O)C(C)(C)C)OC1=O [Compound (21S)-1] | 2.14 | > 1650 | 42.9 | 0.891 | 23.1 | 1.63 | 1.65 | 34.6 | 5.77 |  |  |  |  |  |  |  |  |  |  | 
COC1=CC[C@@H]([C@@H](C)/C=C(C)/C=C\C=C\C(=O)N[C@H](C(=O)N/C=C\C[C@H](C/C=C(\C)Cl)O[Si](C)(C)C(C)(C)C)C(C)(C)C)OC1=O [Compound 29e] |  |  |  |  |  |  |  |  |  |  |  | 2660 | 1150 | 1770 | 2360 | 2070 | 2210 | 2070 | 1140 | 1480
COC1=CC[C@@H]([C@@H](C)/C=C(C)/C=C\C=C/C(=O)N[C@H](C(=O)N/C=C\C[C@H](C/C=C(\C)Cl)OC(N)=O)C(C)C)OC1=O [Compound 5] |  |  |  |  |  |  |  |  |  |  |  | > 169 | 0.0608 | 0.321 | > 169 | 0.0439 | 0.128 | 4.9 | 0.103 | 0.456
